Experimental findings from US10322995B2, “Substituted cyano cycloalkyl penta-2,4-dienes, cyano cycloalkyl pent-2-en-4-ynes, cyano heterocyclyl penta-2,4-dienes and cyano heterocyclyl pent-2-en-4-ynes as active substances against abiotic plant stress” (BAYER CROPSCIENCE AKTIENGESELLSCHAFT, priority 2014, dated 2019) are described below.

Test [1] relates to Brassica napus (BRSNS). Nature of the test: In vivo analyses Part C: drought stress, appearance vs stressed control plants in categories (BRSNS). Particulars: appearance vs stressed control plants after recovery phase, efficacy range of 3-4 pots. More on the design: key: 0: no positive effect; 10: slight positive effect; 20: clear positive effect; 30: strong positive effect. How it is done:
Seeds of monocotyledonous and dicotyledonous crop plants were sown in sandy loam in plastic or wood-fibre pots, covered with soil or sand and cultivated in a greenhouse under good growth conditions. The test plants were treated at the early leaf stage (BBCH10-BBCH13). To assure uniform water supply before commencement of stress, the potted plants were supplied with water by dam irrigation prior to substance application. The inventive compounds were first formulated as wettable powders (WP) or dissolved in a solvent mixture. The further dilution was effected with water supplemented with 0.2% wetting agent (e.g. agrotin). The finished spray liquor was sprayed onto the green parts of the plant at an equivalent water application rate of 600 I/ha. Substance application was followed immediately by stress treatment of the plants. For this purpose, the wood-fibre pots were transferred in plastic inserts in order to prevent them from subsequently drying out too quickly. Drought stress was induced by gradual drying out under the following conditions: “Day”: 14 hours with illumination at 26-30° C. “Night”: 10 hours without illumination at 18-20° C. The duration of the respective stress phases was guided mainly by the condition of the stressed control plants. It was ended (by re-irrigating and transfer to a greenhouse with good growth conditions) as soon as irreversible damage was observed on the stressed control plants. The end of the stress phase was followed by an about 4-7-day recovery phase, during which the plants were once again kept under good growth conditions in a greenhouse. The duration of the recovery phase was guided mainly by when the trial plants had attained a state which enabled visual scoring of potential effects, and was therefore variable. Once this juncture had been reached, the appearance of the plants treated with test substances was recorded in comparison to the stressed control plants by the following categories: [table] For each substance and dosage, 3-4 pots were treated and evaluated. BRSNS=Brassica napus

For test [2], the target named is T1, phosphatase ABI1 via the co-regulator RCAR11/PYR1 (Arabidopsis thaliana, UniProt O49686+P49597).
T1 sequence (O49686 1-191): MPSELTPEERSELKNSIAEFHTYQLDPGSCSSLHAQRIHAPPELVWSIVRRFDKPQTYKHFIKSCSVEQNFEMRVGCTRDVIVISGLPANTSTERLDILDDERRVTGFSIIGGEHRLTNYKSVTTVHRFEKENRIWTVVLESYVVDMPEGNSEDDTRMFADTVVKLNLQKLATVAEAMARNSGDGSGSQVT
T1 sequence (P49597 1-434): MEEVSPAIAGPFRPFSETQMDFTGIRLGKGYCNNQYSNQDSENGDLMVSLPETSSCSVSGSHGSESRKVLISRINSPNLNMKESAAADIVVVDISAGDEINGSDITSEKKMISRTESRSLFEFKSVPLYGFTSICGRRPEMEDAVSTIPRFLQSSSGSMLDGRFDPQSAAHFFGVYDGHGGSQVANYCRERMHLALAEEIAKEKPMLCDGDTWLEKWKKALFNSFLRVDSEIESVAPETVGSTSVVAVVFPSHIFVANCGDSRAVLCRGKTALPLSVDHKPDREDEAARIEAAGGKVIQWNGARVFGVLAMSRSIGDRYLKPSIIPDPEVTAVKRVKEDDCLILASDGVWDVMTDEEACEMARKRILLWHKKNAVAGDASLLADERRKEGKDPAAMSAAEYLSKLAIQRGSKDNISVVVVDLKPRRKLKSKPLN
Kind of test: In vitro assay: inhibition of the phosphatase ABI1 via the co-regulator RCAR11/PYR1, MUP dephosphorylation, fluorescence. The format is biochemical. The settings on record: concentration of 5 mM of the substance in a solution of DMSO and water; MUP dephosphorylation, fluorescence 460 nm. The source says: Effects of the phytohormone abscisic acid (ABA) on the behaviour of plants under abiotic stress and the mechanism of action of ABA are described in the literature (cf. Abrams et al, WO97/23441, Cutler, Park et al. Science, 2009, 324, 1068; Grill et al. Science, 2009, 324, 1064; Tanokura et al. Biophysics, 2011, 7, 123; Schroeder et al. Plant J. 2010, 61, 290). Therefore, it is possible with the aid of a suitable in vitro test system to derive a correlation between the action of ABA and the stress response of a plant under abiotic stress. Under drought stress, plants form the phytohormone abscisic acid (ABA). This binds, along with a co-regulator (Regulatory Component of ABA-Receptor=RCAR according to Grill et al. Science, 2009, 324, 1064 or PYR/PYL according to Cutler et al. Science, 2009, 324, 1068), to a phosphatase (e.g. ABI1, a type 2C protein phosphatase, also abbreviated to PP2C) and inhibits its activity. As a result, a “downstream” kinase (e.g. SnRK2) is no longer dephosphorylated. This kinase, which is thus active, via phosphorylation of transcription factors (e.g. AREB/ABF, vgl. Yoshida et al., Plant J. 2010, 61, 672), switches on a genetic protection programme to increase drought stress tolerance.
The assay described hereinafter utilizes the inhibition of the phosphatase ABI1 via the co-regulator RCAR11/PYR1 aus Arabidopsis thaliana.
For the determination of activity, the dephosphorylation of 4-methylumbelliferyl phosphate (MUP) was measured at 460 nm. The in vitro assay was conducted in Greiner 384-well PS microplates F-well, using two controls: a) dimethyl sulphoxide (DMSO) 0.5% (f.c.) and b) 5 μM (f.c.) abscisic acid (ABA). […] The substance solution thus obtained, if necessary, was stirred with esterase from porcine liver (EC 3.1.1.1) at room temperature for 3 h and centrifuged at 4000 rpm for 30 min. A total volume of 45 μl was introduced into each cavity of the microplate, having the following composition: • 1) 5 μl of substance solution, i.e. a) DMSO 5% or b) abscisic acid solution or c) the corresponding example compound of the general formula (I) dissolved in 5% DMSO. • 2) 20 μl of enzyme buffer mix, composed of a) 40% by vol. of enzyme buffer (10 ml contain equal proportions by volume of 500 mM Tris-HCl pH8, 500 mM NaCl, 3.33 mM MnCl2, 40 mM dithiothreitol (DTT)), b) 4% by vol. of ABI1 dilution (protein stock solution was diluted so as to give, after addition, a final concentration in the assay of 0.15 μg ABI1/well), c) 4% by vol. of RCAR11 dilution (enzyme stock was diluted so as to give, on addition of the dilution to the enzyme buffer mix, a final concentration in the assay of 0.30 μg enzyme/well), d) 5% by vol. of Tween20 (1%), e) 47% by vol. H2O bi-dist. • 3) 20 μl of substrate mix, composed of a) 10% by vol. of 500 mM Tris-HCl pH8, b) 10% by vol. of 500 mM NaCl, c) 10% by vol. of 3.33 mM MnCl2, d) 5% by vol. of 25 mM MUP, 5% by vol. of Tween20 (1%), 60% by vol. of H2O bi-dist.
Enzyme buffer mix and substrate mix were made up 5 minutes prior to the addition and warmed to a temperature of 35° C. On completion of pipetting of all the solutions and on completion of mixing, the plate was incubated at 35° C. for 20 minutes. Finally, a relative fluorescence measurement was made at 35° C. with a BMG Labtech “POLARstar Optima” microplate reader using a 340/10 nm excitation filter and a 460 nm emission filter. The efficacy of the compounds of the general formula (I) is reported in the table which follows using abscisic acid (No. 64) as comparative substance according to the following classification: ++++ (inhibition≥90%), +++ (90%>inhibition≥70%), ++ (70%>inhibition≥50%), +(50%>inhibition≥30%).
Effects of selected compounds of the general formula (I) in the above-described in vitro assay at a concentration of 5 mM of the substance of the general formula (I) in question in a solution of DMSO and water: […]

`CCCOC(=O)C=C(C#CC(O)(C(CC)CC)C1(C#N)CC1)C(F)(F)F` (racemic) [I.1-887]: the “Effect (BRSNS)” value in test [1] (dosage 250 g/ha) is 10-20. In test [2], the ABI1 inhibition entry is “+++ (90%>inhibition≥70%)”.
`CCC(C=CC(O)(C(C)C)C1(C#N)CC1)=CC(=O)OC` (racemic) [I.2-102]: the “Effect (BRSNS)” value in test [1] (dosage 250 g/ha) is 10-20. Further, in test [2], the ABI1 inhibition result was “++++ (inhibition≥90%)”.
In the same order, the values of `CCCOC(=O)C=C(C=CC(O)(C(C)C)C1(C#N)CC1)CC` (racemic) [I.2-507] are 30 and “++++ (inhibition≥90%)”.
For `CC/C(C#CC(O)(C1CC1)C1(C#N)CC1)=C/C(=O)OC` (centres unmarked) [I.1-618], the “Effect (BRSNS)” value in test [1] (dosage 25 g/ha) was found to be 30. In addition, in test [2], the ABI1 inhibition entry was “++++ (inhibition≥90%)”.
Regarding `COC(=O)C=C(C#CC(O)(c1ccc(C)cc1)C1(C#N)CC1)C(F)(F)F` (racemic) [I.1-812], the “Effect (BRSNS)” value in test [1] (dosage 250 g/ha) is recorded as 10-20. The ABI1 inhibition entry in test [2] is “+++ (90%>inhibition≥70%)”.
For `CC/C(C#CC(O)(C1CCCCC1)C1(C#N)CC1)=C/C(=O)OC` (centres unmarked) [I.1-678], the “Effect (BRSNS)” value in test [1] (dosage 250 g/ha) is 10-30. Besides, the ABI1 inhibition entry in test [2] is “++++ (inhibition≥90%)”.
Taken in the same sequence, the figures for `CCC(C=CC(O)(C(CC)CC)C1(C#N)CC1)=CC(=O)OC` (racemic) [I.2-583] were 10-30 and “++++ (inhibition≥90%)”.
